IC50 data for nine compounds are collected here from patent publication US8338367B2, “Fused heteroaryl diamide compounds useful as MMP-13 inhibitors” (Boehringer Ingelheim International GmbH, priority 2008, dated 2012).

The experiment deals with MMP13 (Homo sapiens, UniProt P45452). Kind of experiment: EnzoLyte 520 Generic MMP Assay Kit (FRET peptide substrate), MMP-13 inhibition. Type of experiment: biochemical. From the text:
The EnzoLyte™ 520 Generic MMP Assay Kit (AnaSpec Inc.) can detect the activity of several MMPs including MMP-1, 2, 3, 7, 8, 9, 13, and 14. This kit uses a 5-FAM/QXL™ 520 fluorescence resonance energy transfer (FRET) peptide as an MMP substrate. In the intact FRET peptide, the fluorescence of 5-FAM is quenched by QXL™ 520. Upon cleavage into two separate fragments by MMPs, the fluorescence of 5-FAM is recovered, and can be monitored at excitation/emission wavelengths=490 nm/520 nm. The assays are performed in a convenient 96-well or 384-well microplate format.
`CNC(=O)[C@@H](NC(=O)c1ccc(-c2ccc3cc(C(=O)N4CC(C)OC(C)C4)[nH]c3c2)o1)C(C)C` (stereo partly drawn) [5-[2-(2,6-Dimethyl-morpholine-4-carbonyl)-1H-indol-6-yl]-furan-2-carboxylic acid ((S)-2-methyl-1-methylcarbamoyl-propyl)-amide] registered an IC50 of 65 nM. Under `CNC(=O)[C@@H](NC(=O)c1ccc(-c2ccc3cc(C(=O)N4CCN(C)CC4)[nH]c3c2)o1)C(C)C` [5-[2-(4-Methyl-piperazine-1-carbonyl)-1H-indol-6-yl]-furan-2-carboxylic acid ((S)-2-methyl-1-methylcarbamoyl-propyl)-amide] stands 300 nM.

`CNC(=O)[C@@H](NC(=O)c1ccc(-c2ccc3nc[nH]c3c2)o1)C1CCCCC1` [5-(3H-Benzimidazol-5-yl)-furan-2-carboxylic acid ((S)-cyclohexyl-methylcarbamoyl-methyl)-amide] returned an IC50 of 270 nM. Under `CNC(=O)[C@@H](NC(=O)c1ccc(-c2cc3[nH]ccc3cn2)o1)C1CCCCC1` [5-(1H-Pyrrolo[3,2-c]pyridin-6-yl)-furan-2-carboxylic acid ((S)-cyclohexyl-methylcarbamoyl-methyl)-amide] stands 103 nM; under `CNC(=O)[C@@H](NC(=O)c1ccc(-c2ccc3cc(C(=O)N4CCS(=O)(=O)CC4)[nH]c3c2)o1)C(C)C` [5-[2-(1,1-Dioxo-λ^6-1-thiomorpholine-4-carbonyl)-1H-indol-6-yl]-furan-2-carboxylic acid ((S)-2-methyl-1-methylcarbamoyl-propyl)-amide], 200 nM; under `CNC(=O)[C@@H](NC(=O)c1ccc(-c2ccc3nc(Cc4ccncc4)[nH]c3c2)o1)C1CCCCC1` [5-(2-Pyridin-4-ylmethyl-3H-benzimidazol-5-yl)-furan-2-carboxylic acid ((S)-cyclohexyl-methylcarbamoyl-methyl)-amide], 34 nM. Under `CNC(=O)[C@@H](NC(=O)c1ccc(-c2ccc3cc(C(=O)N4CCOCC4)[nH]c3c2)o1)C1CCCCC1` [5-[2-(Morpholine-4-carbonyl)-1H-indol-6-yl]-furan-2-carboxylic acid ((S)-cyclohexyl-methylcarbamoyl-methyl)-amide] stands 340 nM; under `CNC(=O)[C@@H](NC(=O)c1ccc(-c2ccc3cc[nH]c3c2)o1)C1CCCCC1` [5-(1H-Indol-6-yl)-furan-2-carboxylic acid ((S)-cyclohexyl-methylcarbamoyl-methyl)-amide], 290 nM. Under `CNC(=O)[C@@H](NC(=O)c1ccc(-c2ccc3cc(C(=O)N4CCOCC4)[nH]c3c2)o1)C(C)C` [5-[2-(Morpholine-4-carbonyl)-1H-indol-6-yl]-furan-2-carboxylic acid ((S)-2-methyl-1-methylcarbamoyl-propyl)-amide] stands 415 nM.

The term IC50 denotes the midpoint of a concentration-inhibition curve. High values mean weaker potency in that assay, low ones greater potency in that assay.
